This note sets out measurements from patent US12030908B2, “Antimicrobial compounds, compositions, and uses thereof” (Lakewood Amedex, Inc., priority 2017, dated 2024).

Each structure is given as a SMILES string. “Also recorded” adds a separate entry of the source.

In experiment [1] the test system is Aspergillus fumigatus (ATCC13073). In words: Individual mouse clinical signs (animal condition) in the Aspergillus fumigatus lung infection model (Example 24). Type of experiment: in vivo, BALB/c mice. Further details: key: NAD = no abnormality detected.
The test system of experiment [2] is wild type P. aeruginosa (PAO1; K2732). In words: Bacterial cytological profiling at pH 4, 5.5, 7 (Example 7), P. aeruginosa. Type of experiment: cell-based. The conditions noted are these: pH 7, 225 mg/mL. How it is done: This bacterial cytological profiling (BCP) investigation uses methods and materials described previously by Nonejuie, P., Burkart, M., Poglianoa, K., Pogiano, J. (2013). Bacterial cytological profiling rapidly identifies the cellular pathways targeted by antibacterial molecules. Proc. Natl. Acad. Sci. U.S.A. 110(40):16169-16174. doi: 10.1073/pnas.1311066110.
For viable cell counts, cells are grown to OD600≈0.4 and diluted 1:1 into buffered or unbuffered media containing various compound concentrations. Samples are then collected and serially diluted (1:10) on a 96 well plate. Five microliters from each well are spotted on LB plates, incubated at 30° C., and viable cells are counted the next day.
Samples are collected at 10, 30, 120, and 240 min of exposure for viable cell count and imaging. For imaging, E. coli and S. aureus 200 μL of treated cells per time point are stained with 0.8 μg/mL FM4-64, 1.5 μg/mL DAPI, and 0.4 μM SYTOXGreen (Molecular Probes/Invitrogen). P. aeruginosa samples are stained 0.4 μM SYTOX Green, 28 μg/mL DAPI, and 1 μg/mL FM 4-64. Cells are transferred to an agarose pad (20% LB, 1% agarose) for imaging.
For Nu-3 and Nu-8 stocks (at pH 4, 5.5 and 7), stock concentration is 500 mg/mL. For pH 4, the stocks are prepared by dissolving Nu-3 in 25 mM citrate buffer and Nu-8 in 350 mM citric acid. […]

The next experiment relates to E. coli ATCC25922. In words: Urinary tract infection model in rats, transurethral treatment (Example 11). It counts as in vivo, Sprague-Dawley rats. The conditions noted are these: 60 min. How it is done:
Female Sprague-Dawley rats (n=6/group) are intraurethrally infected with the predetermined inoculum size of E. coli. At the specified time following infection with (depending on the in vivo growth curve), the animals are anaesthetized (ketamine/xylazine) and treated by transurethral administration with neutral saline (group 1), saline pH 3.5 adjusted with phosphoric acid (group 2), test compound Nu-8 pH 3.5 at 103 and 207 mg/kg (groups 3 and 4, respectively). When adjusting pH, the volume of phosphoric acid added are monitored and the final concentration of the pH adjusted dose solution are subsequently determined. The goal is to have the final concentration after pH adjustment within 10% of the desired dose so the final concentration after pH adjustment are reported. Volume of administration will be 300 μL. TABLE 9 (Animal Challenge and Treatment Schedule) summarizes the study groups.
Two hours prior to each infection animals are water deprived. Each animal is infected twice with 24 hrs difference by transurethral administration of 300 μL of bacterial suspension under light ketamine and xylazine anaesthesia. Prior to infection, urine is evacuated by digital pressure, cannula is gently inserted into the bladder via urethra, and 300 μL of bacterial suspension is inserted into the bladder. […]

[3] abbreviates: Part C, 1×10^3 conidia/animal, Nu-8 (10%), 3 doses, once daily for 3 days, aerosol, individual animals.
The mark [4] stands for this setting: Part D, 1×10^2 conidia/animal, Nu-8 (10%), 5 doses, once daily for 5 days, individual animals.

Regarding `CCCCOP(=O)(O)OC[C@H]1O[C@@H](n2ccc(N)nc2=O)C[C@@H]1OP(=O)(O)OCCCC` [Nu-8, sodium ((2R,3S,5R)-5-(4-amino-2-oxopyrimidin-1(2H)-yl)-3-((butoxyoxidophosphor-yl)oxy)tetrahydrofuran-2-yl)methyl butyl phosphate], the “Animal Condition Day 1” value in experiment [1] (Part A, 3 doses, once daily for 3 days, individual animals 19-24) was “Normal”; in experiment [1] (Part A, 5 doses, once daily for 5 days, individual animals 25-30), “Normal”; in experiment [1] (Part B, 3 doses, once daily for 3 days, individual animals 23-30), “NAD”; in experiment [1] (Part B, single dose, individual animals 15-22) it was “NAD”; in experiment [1] (setting [3]), “NAD”; in experiment [1] (setting [4]), “NAD”. Moreover, the entries for the “Animal Condition Day 2” value in experiment [1] (setting [3]) and in experiment [1] (setting [4]) were “Animal dull” and “NAD”, respectively. Also, the “Animal Condition Day 3” value is “Animal dull; also recorded: Moribund” in experiment [1] (setting [3]) and “NAD” in experiment [1] (setting [4]). For the same compound, in experiment [1] (setting [4]), the “Animal Condition Day 4” value is “NAD”. Moreover, the “Animal Condition Day 5” value in experiment [1] (setting [4]) is “NAD”. In addition, in experiment [2], the cell growth result was “slightly lower than that at pH 7 alone”. Moreover, the cell permeability in experiment [2] (10 min, not persistent) is given as ~37%. Moreover, the “mean CFU log 10 per mL of bladder tissue (tissue plus urine)” value is recorded as 5.53 Log 10 CFUs/mL bladder tissue in the experiment on E. coli ATCC25922 (pH 3.5, 103 mg/kg transurethral) and 4.60 Log 10 CFUs/mL bladder tissue with E. coli ATCC25922 (pH 3.5, 207 mg/kg transurethral).
